Laboratory results reported in US7612087B2, “Heterocyclic compounds as inhibitors of beta-lactamases” (Novexel, priority 2002, dated 2009).
Where a name gives a salt, the structure may show the parent alone.

What was measured:
β-lactamase TEM1 = molecular target: T1, β-lactamase TEM1 (Escherichia coli, UniProt P62593); test: Inhibition of isolated β-lactamase Tem-1 (Nitrocefin hydrolysis); type: biochemical, E.coli 250HT21; conditions: 100 μM Nitrocefin, 50 mM sodium phosphate buffer pH7.0, 37° C.
T1 construct: The β-lactamases are isolated from bacterial strains which are resistant to penicillins and cephalosporins; endogenous in cells; host or cells: E. coli 250HT21 (natural producer; French-press lysate, 100,000 g supernatant)
Method: (§1) A. Preparation of the β-lactamases Tem-1 and P99
(§2) The β-lactamases are isolated from bacterial strains which are resistant to penicillins and cephalosporins (Tem1 and P99 are produced by E.coli 250HT21 and E.Cloacae 293HT6 respectively).
(§3) The bacteria are cultured at 37° C. in heart-brain culture at 37 g/l (DIFCO). They are harvested at the end of the exponential phase, cooled down and centrifuged. The bacterial pellets are taken up in sodium phosphate buffer 50 mM, pH 7.0 and centrifuged again. The bacteria are taken up in two volumes of the same buffer and lyzed using a French-Press maintained at 4° C. After centrifugation for 1 hour at 100,000 g, at 4° C., the supernatants containing the soluble fraction of the bacterial extracts are recovered and frozen at −80° C.
(§4) The method uses Nitrocefin (OXOID), cephalosporin chromogene as substrate, of which the product hydrolyzed by the B-lactamases is red and absorbs at 485 nm. Beta-lactamase activity is determined kinetically by measurement of the absorbance variation at 485 nm resulting from the hydrolysis of the substrate using a plate spectrophotometer (Spectra Max More Molecular Devices). The experiments are carried out at 37° C. The quantity of enzyme was normalized and the measurements are carried out at initial speed.
(§5) Two measurements were carried out, without preincubation and with preincubation of the enzyme and inhibitor (5 mn), in order to test the irreversibility of the reaction. The products are tested at 6 or 8 concentrations in duplicate. The reaction mixture contains 100 μM of Nitrocefin and 50 mM sodium phosphate buffer pH7.0.
(§6) The hydrolysis speeds are measured with and without inhibitor. The concentration of inhibitor which inhibits by 50% the hydrolysis reaction of Nitrocefin by the enzyme (CI50) is determined. The data is processed using GraFit software (Erathycus Software).

β-lactamase P99 = molecular target: T2, β-lactamase P99 (Enterobacter cloacae, UniProt P05364); test: biochemical; conditions: 100 μM Nitrocefin, 50 mM sodium phosphate buffer pH7.0, 37° C.; read-out: IC50 nM/P99
T2 construct: The β-lactamases are isolated from bacterial strains which are resistant to penicillins and cephalosporins; endogenous in cells; host or cells: Enterobacter cloacae 293HT6 (natural producer; French-press lysate, 100,000 g supernatant)
Method: as §1, §2, §3, §4, §5, §6

T1 sequence (P62593 24-286 limits assumed): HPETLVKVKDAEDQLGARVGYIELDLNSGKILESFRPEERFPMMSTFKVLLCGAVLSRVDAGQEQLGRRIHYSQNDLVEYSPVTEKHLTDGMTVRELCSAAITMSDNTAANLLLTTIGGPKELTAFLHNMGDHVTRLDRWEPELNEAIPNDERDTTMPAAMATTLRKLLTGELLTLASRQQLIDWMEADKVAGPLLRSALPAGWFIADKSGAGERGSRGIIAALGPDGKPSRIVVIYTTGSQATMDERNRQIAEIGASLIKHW
T2 sequence (P05364 21-381): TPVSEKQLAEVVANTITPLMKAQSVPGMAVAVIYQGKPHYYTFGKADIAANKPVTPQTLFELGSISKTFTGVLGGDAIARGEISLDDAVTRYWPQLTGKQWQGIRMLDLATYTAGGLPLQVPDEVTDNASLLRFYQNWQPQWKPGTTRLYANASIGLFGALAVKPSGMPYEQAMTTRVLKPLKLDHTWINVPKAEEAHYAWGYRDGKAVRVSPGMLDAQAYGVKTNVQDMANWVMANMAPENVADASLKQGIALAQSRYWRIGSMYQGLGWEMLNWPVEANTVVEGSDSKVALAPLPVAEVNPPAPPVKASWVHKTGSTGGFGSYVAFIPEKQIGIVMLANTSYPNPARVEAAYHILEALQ

Row | Molecule | IC50 (β-lactamase TEM1) | IC50 (β-lactamase P99)
1 | 6-benzoyl—N—[methyl(phenylmethyl)]-7-oxo-1,6-diazabicyclo[3.2.1]octane-2-carboxamide [Example 29e] | 4200 nM | 6300 nM
2 | O=C(O)CC[C@@H]1CCN2C[C@H]1OC2=O (relative stereo) [Example 1a, cis-7-oxo-6-oxa-1-azabicyclo[3.2.1]octane-4-propanoic acid] | 700 nM | > 10000 nM
3 | O=C(C[C@@H]1CCN2C[C@@H]1OC2=O)OC(c1ccccc1)c1ccccc1 (relative stereo) [Example 2, Trans diphenylmethyl 7-oxo-6-oxa-1-azabicyclo[3.2.1]octan-4-acetate] | 462 nM | 
4 | O=C(O)C[C@@H]1CCN2C[C@@H]1OC2=O (relative stereo) [Example 2a, trans-7-oxo-6-oxa-1-azabicyclo[3.2.1]octan-4-acetic acid] | 6730 nM | 
5 | O=C(C[C@@H]1CCN2C[C@H]1OC2=O)OC(c1ccccc1)c1ccccc1 (relative stereo) [Example 3, cis diphenylmethyl 7-oxo-6-oxa-1-azabicyclo[3.2.1]octan-4-acetate] | 590 nM | 9800 nM
6 | O=C(O)C[C@@H]1CCN2C[C@H]1OC2=O (relative stereo) [Example 3a, cis-7-oxo-6-oxa-1-azabicyclo[3.2.1]octan-4-acetic acid] | 4400 nM | 
7 | COC(=O)C[C@@H]1CCN2C[C@H]1OC2=O (relative stereo) [Example 3b, cis methyl 7-oxo-6-oxa-1-azabicyclo[3.2.1]octan-4-acetate] | 2010 nM | 
8 | N#CC[C@@H]1CCN2C[C@H]1OC2=O (relative stereo) [Example 4, cis-7-oxo-6-oxa-1-azabicyclo[3.2.1]octan-4-acetonitrile] | 2710 nM | 
9 | O=C(OCc1ccccc1)[C@H]1C[C@@H]2CN1C(=O)N2C(=O)c1ccccc1 (relative stereo) [Example 7a, trans phenylmethyl 3-benzoyl-2-oxo-1,3-diazabicyclo[2.2.1]heptane-6-carboxylate] | 55 nM | 17 nM
10 | O=C(OCc1ccccc1)[C@H]1C[C@@H]2CN1C(=O)N2S(=O)(=O)c1ccccc1 (relative stereo) [Example 8, trans phenylmethyl 2-oxo-3-(phenylsulphonyl)-1,3-diazabicyclo[2.2.1]heptane-6-carboxylate] | 1400 nM | 62 nM
11 | C[C@@]12C[C@H](C(=O)OCc3ccccc3)N(C1)C(=O)N2C(=O)c1ccccc1 (relative stereo) [Example 9, trans phenylmethyl 3-benzoyl-4-methyl-2-oxo-1,3-diazabicyclo[2.2.1]heptane-6-carboxylate] | 8500 nM | 630 nM
12 | O=C(OCc1ccccc1)[C@@H]1C[C@@H]2CN1C(=O)N2OS(=O)(=O)O (relative stereo) [Example 10, 1-propenyltriphenylphosphonium salt of trans phenylmethyl 2-oxo-3-(sulphooxy)-1,3-diazabicyclo[2.2.1]heptane-6-carboxylate] | 0.26 nM | 1.5 nM
13 | COC(=O)[C@@H]1CC[C@@H]2CN1C(=O)O2 (relative stereo) [Example 26c, trans methyl 7-oxo-6-oxa-1-azabicyclo[3.2.1]octane-2-carboxylate] | 1100 nM | 7000 nM
14 | O=C(NCc1ccccc1)[C@@H]1CC[C@@H]2CN1C(=O)N2C(=O)c1ccccc1 (relative stereo) [Example 29d, trans-6-benzoyl-7-oxo-N-(phenylmethyl)-1,6-diazabicyclo[3.2.1]octane-2-carboxamide] | 9500 nM | 2000 nM
15 | O=C(c1ccccc1)N1C(=O)N2CCC1C2 (centres unmarked) [Example 5, 3-benzoyl-1,3-diazabicyclo[2.2.1]heptan-2-one] | 1010 nM | 
16 | O=C(c1ccccc1)N1C(=O)N2CCCC1C2 (centres unmarked) [Example 14, 6-benzoyl-1,6-diazabicyclo[3.2.1]octan-7-one] | 6400 nM | 
17 | Cc1ccc(S(=O)(=O)ON2C(=O)N3CCCC2C3)cc1 (centres unmarked) [Example 19e, 6-[[(4-methylphenyl)sulphonyl]oxy]-1,6-diazabicyclo[3.2.1]octan-7-one] | 11 nM | 
18 | CS(=O)(=O)ON1C(=O)N2CCCC1C2 (centres unmarked) [Example 19f, 6-[(methylsulphonyl)oxy]-1,6-diazabicyclo[3.2.1]octan-7-one] | 110 nM | 
19 | O=C1N2CCCC(C2)N1OS(=O)(=O)c1ccc([N+](=O)[O-])cc1 (centres unmarked) [Example 19g] | 29 nM | 
20 | O=C1OC2C=CCN1C2 (centres unmarked) [Example 22, 6-oxa-1-azabicyclo[3.2.1]oct-3-en-7-one] | 5100 nM | 
21 | O=C(O)C1CCC2CN1C(=O)O2 (stereo not drawn) [Example 26b, trans-7-oxo-6-oxa-1-azabicyclo[3.2.1.]octane-2 carboxylic acid] | 4900 nM | 
22 | O=C(OCc1ccccc1)C1CCC2CN1C(=O)N2OS(=O)(=O)O (stereo not drawn) [Example 28b, Sodium salt of trans phenylmethyl 7-oxo-6-(sulphooxy)-1,6-diazabicyclo[3.2.1]octane-2-carboxylate] | 9.5 nM | 12 nM
23 | O=C(OCc1ccccc1)C1CCC2CN1C(=O)N2OS(=O)(=O)c1cccs1 (stereo not drawn) [Example 28d, trans pheylmethyl 7-oxo-6-[(2-thienylsulphonyl)oxy]-1,6-diazabicyclo[3.2.1]octane-2-carboxylate] | 1.3 nM | 390 nM
24 | O=C(O)C1CCC2CN1C(=O)N2C(=O)c1ccccc1 (stereo not drawn) [Example 29b, trans-6-benzoyl-7-oxo-1,6-iazabicyclo[3.2.1]octane-2-carboxylic acid] | 460 nM | 4200 nM
25 | O=C(c1ccccc1)N1C(=O)N2CC1CCC2CO (centres unmarked) [Example 29f, 6-benzoyl-2-(hydroxymethyl)-1,6-diazabicyclo[3.2.1]octan-7-one] | 5200 nM | 
26 | C=CCOC(=O)N1C(=O)N2CC1CCC2C(=O)OCc1ccc([N+](=O)[O-])cc1 (stereo not drawn) [Example 31, trans (4-nitrophenyl)methyl and 2-propenyl 7-oxo-1,6-diazabicyclo[3.2.1]octane-2,6-dicarboxylate] | 5700 nM | 
27 | COC1=CC2CN(C1)C(=O)N2OS(=O)(=O)O (centres unmarked) [Example 52, Sodium salt of 3-methoxy-6-(sulphooxy)-1,6-diazabicyclo[3.2.1]oct-3-in-7-one] | 11 nM | 4600 nM
28 | O=C1N2CC=CC(C2)N1OS(=O)(=O)O (centres unmarked) [Example 53, Sodium salt of 6-(sulphooxy)-1,6-diazabicyclo[3.2.1]oct-3-in-7-one] | 15 nM | 5900 nM
29 | O=C1N2CCCC(C2)N1OS(=O)(=O)O (centres unmarked) [Example 54, Sodium salt of 6-(sulphooxy)-1,6-diazabicyclo[3.2.1]octan-7-one] | 3100 nM | 
30 | trans phenylmethyl 6-(2-hydroxy-2-oxoethoxy)-7-oxo-1,6-diazabicyclo[3.2.1]octane-2-carboxylate [Example 28e] | 52 nM | 
